# Test results taken from US9546401B2, “Assays and methods for selecting a treatment regimen for a subject with depression” (The General Hospital Corporation, priority 2011, dated 2017).
# Read-outs that look alike come from different tables or passages of the source.
# Tests used:
# [1] = system: MDD patients, remitters at end of double-blind phase; conditions: for Relapsers (HAM-D-17 > 15) during 12-month maintenance phase: 15 mg/day as adjuvant
# Protocol: During each visit, patients are administered the HAM-D-28, the CGI, the QIDS-SR, the SAFTEE-SI, the MGH-CPFQ, and the MGH-SFQ (See, e.g., Table 10 below). […] Subjects are also allowed to change their antidepressant during the course of the follow-up, if deemed appropriate. For patients who refuse the 12 months of free follow-up care, a referral to a psychiatrist is offered.
# [2] = system: SSRI-resistant outpatients with major depressive disorder (MDD); conditions: for CGI-S Mean score reduction / HDRS-17 % Remission / HDRS-17 % Response / HDRS-17 Mean score reduction / QIDS-SR % Remission / QIDS-SR % Response / QIDS-SR Mean score reduction: 15 mg/day adjunct to an SSRI
# Text: Using the sequential parallel design […] For those randomly assigned to the placebo/placebo sequence, both responders and non-responders to placebo during the first phase (n=25) remain on placebo during the second phase. […] Data from the previous double-blind, placebo-controlled study (Trial 1) can be pooled into the instant study (Trial 2) to provide a more accurate estimate of the placebo effect size, with a weighted average from the two Phases 1 (one from Trial 1 and one from Trial 2) and two Phases 2 (one from Trial 1 and one from Trial 2).
# All patients are asked to take one tablet of blinded study medication in the morning, in addition to their stable dose of ongoing SSRI treatment. […] Therefore, for patients randomly assigned to the placebo/placebo sequence, the tablets of study medication are placebo during both phases of the study.
# The primary efficacy measure can include the change in 17-item Hamilton Rating Scale for Depression (HAM-D-17) score. […] A remission is, for example, defined as a HAM-D-17 score less than 8 at endpoint. Secondary measures of efficacy can include change in CGI-severity, with “clinical response defined” as CGI-S of 1 or 2 at endpoint. Patients with a CGI-I score greater than 5 at any post baseline visit or a 50 percent or greater worsening of depressive symptoms from baseline to that visit are discontinued from the study. Subjects are also discontinued from the study with any emergence of suicidality, homicidality, mania, or psychosis. Additional exemplary instruments that can be administered according to the study schedule include the following: • (1) Structured Clinical Interview for DSM-IV: The SCID-I/P, administered by the clinician, proceeds by modules to diagnose the different Axis I disorders. Questions are asked exactly as written, and each is based on the individual criteria from DSM-IV. Answers are generally rated on a scale of 1-3 (1=doubtful, 2=probable, 3=definite), and, based on the number of positive answers, a diagnosis is determined by a clinician. While the entire SCID-I/P is administered at screen, the mood module is administered at each follow up visit. • (2) The MGH Antidepressant Treatment History Questionnaire (MGH-ATR): The MGH-ATR provides specific criteria for the adequate dose and adequate length of a trial for it to be considered a failure, thus allowing clinicians to systematically collect data aimed at assessing the degree of treatment-resistance of the current major depressive episode. • (3) The 28-item Hamilton Depression Scale (HAM-D-28): This version allows scoring of the HAM-D-17, 21-, 25-, and 28-item scales. This instrument is completed by the clinician by using a structured interview and defined anchor points, and aims to quantify the degree of depression over the past 7 days. The HAM-D is the most widely studied instrument for depression, and its reliability and validity are high. • (4) Clinical Global Impressions—Severity and Improvement (CGI-S, CGI-I): These two instruments are scored 1-7 by the clinician based on assessment of the patient's clinical status. They measure, based on history and scores on other instruments: a) Depressive severity (CGI-S) and b) Clinical Improvement (CGI-I). […] Safety Measurements
# Data are entered and error-checked at each clinical site involved in the study. Study staff and subjects may have the option to enter self-evaluations into the system directly using DatStat Illume™. The process of data entry is supervised by the DCRP staff. Once the data set is entered and checked, analyses are conducted. Both a completer analysis of all patients finishing the trial and an intent-to-treat analysis examining all patients enrolled into the trial are used to define the severity of depression at endpoint. Examination of both study completers and all patients randomized can provide the broadest assessment of the effects of treatment in trials of such kind.
# [3] = SSRI + 15 mg/day versus SSRI + placebo, after 30 days
compound,measurement,setting,value
"CN1c2c(nc(N)[nH]c2=O)NC[C@@H]1CNc1ccc(C(=O)N[C@@H](CCC(=O)O)C(=O)O)cc1 [6(S)-5-MTHF, 6(S)-5-methyltetrahydrofolate]",Relapsers (HAM-D-17 > 15) during 12-month maintenance phase,"[1]; Trial 1, 2 remitters entering maintenance",0
same,Relapsers (HAM-D-17 > 15) during 12-month maintenance phase,"[1]; Trial 2, 9 remitters entering maintenance",0
same,relapse during 12-month maintenance phase,"[1]; remitters at end of double-blind phase, 15 mg/day adjunctive",did not have a relapse
same,CGI-S Mean score reduction,[2]; Phase 1,−1.3
same,HDRS-17 % Remission,[2]; Phase 1,15.7%
same,HDRS-17 % Response,[2]; Phase 1,36.8%
same,HDRS-17 Mean score reduction,[2]; Phase 1,−7.5
same,QIDS-SR % Remission,[2]; Phase 1,21.0%
same,QIDS-SR % Response,[2]; Phase 1,36.8%
same,QIDS-SR Mean score reduction,[2]; Phase 1,−8.1
same,CGI-S Mean score reduction,[2]; Phase 2,−0.5
same,HDRS-17 % Remission,[2]; Phase 2,11.1%
same,HDRS-17 % Response,[2]; Phase 2,27.7%
same,HDRS-17 Mean score reduction,[2]; Phase 2,−3.8
same,QIDS-SR % Remission,[2]; Phase 2,5.5%
same,QIDS-SR % Response,[2]; Phase 2,11.1%
same,QIDS-SR Mean score reduction,[2]; Phase 2,−1.3
same,CGI-S Mean score reduction,[2]; Pooled Phases 1 and 2,−0.92
same,HDRS-17 % Remission,[2]; Pooled Phases 1 and 2,13.4%
same,HDRS-17 % Response,[2]; Pooled Phases 1 and 2,32.3%
same,HDRS-17 Mean score reduction,[2]; Pooled Phases 1 and 2,−5.58
same,QIDS-SR % Remission,[2]; Pooled Phases 1 and 2,13.3%
same,QIDS-SR % Response,[2]; Pooled Phases 1 and 2,23.9%
same,QIDS-SR Mean score reduction,[2]; Pooled Phases 1 and 2,−4.7
same,"degree of improvement (HAM-D-17, QIDS-SR, CGI-S)",[2]; [3],"greater degree of reduction in the scores of HAM-D-17, QIDS-SR and CGI-S"
same,percentage of remitters (HAM-D-17 or QIDS-SR),[2]; [3],no significant difference
same,percentage of responders (50% or greater reduction in HAM-D-17),[2]; [3],response rate is higher for the 6(S)-5-MTHF group than the placebo group
